Source: patent US20250066370A1, “BICYCLIC TRIAZINE DERIVATIVES FOR THE TREATMENT OF CANCER” (DEUTSCHES KREBSFORSCHUNGSZENTRUM, priority 2022, published 2025)

Key:
[1] = system: BRCA1 mRNA expression in MDA-MB-231 cells; experiment: qRT-PCR assay: inhibition of BRCA1 mRNA expression in MDA-MB-231 cells; type: cell-based; settings: Homo sapiens, 24 h exposure, BRCA1 normalised to GAPDH, median, read-out: RTqPCR-MDA-MB-231, IC50 [mol/l], BRCA1 (median)
Method: 3. qRT-PCR Assay: BRCA1, ATR, MCL1 in MDA-MB-231, CAL-120
Tissue cultured human MDA-MB-231 human breast cancer cells were plated in 500 microL per well at 200,000 cells/well in a 24 well microtiter plate. After 24 h, the cells were exposed continuously for 24 h to test substances (substances were added with Tecan HP D300 Dispenser). RNA was prepared using Qiagen RNeasy MiniKit (#74106), RNA was quantified using a NanoDrop Equipment, and 600 nano grams of RNA was converted to cDNA using a SuperScript VILO kit (Thermofisher #11755050) followed by qPCR amplification. BRCA1 and ATR gene expression was measured by RT-qPCR and normalised to GAPDH housekeeping gene expression. qPCR primer sets have been purchased from Thermo Fisher Scientific/Applied Biosystems: BRCA1, #Hs 01556193; ATR. #Hs 00992123: GAPDH. #Hs 03929097.

[2] = target: CDK12/CyclinK (Homo sapiens (Human), UniProt Q9NYV4); experiment: CDK12/CycK high ATP kinase assay (TR-FRET); type: biochemical; settings: for IC50: 2 mM ATP (high ATP), median, read-out: CDK12/CyclinK, 2 mM ATP (high ATP), IC50 - [mol/l] (median); for (IC50 CDK12 high ATP) to (Degradation DC50 CDK12) ratio: IC50 CDK12 at 2 mM ATP divided by CDK12 degradation DC50 (IF, CAL-120)
Method: In the context of the present invention, the term “IC50 CDK12 hATP” refers to the IC50 values obtained according to the assay described in this section (2.2) herein below, i.e. the IC50 values for the inhibition of CDK12 at high (2 mM) ATP.
CDK12/CycK-inhibitory activity of compounds of the present invention at 2 millimol/L adenosine-tri-phosphate (ATP) was quantified employing the TR-FRET (TR-FRET=Time Resolved Fluorescence Energy Transfer) based CDK12/CycK activity inhibition assay as described in the following paragraphs.
A complex of human recombinant CDK12 and human recombinant CycK (both N-terminally His-tagged, expression and purification as described above) was used as enzyme. As substrate for the kinase reaction biotinylated peptide biotin-Ahx-KFELLPTPPLSPSRRSGL (C-terminus in amid form) was used which can be purchased e.g. form the company Biosyntan (Berlin-Buch, Germany).
For the assay 50 nanoL of a 100 fold concentrated solution of the test compound in DMSO was pipetted into either a black low volume 384 well microtiter plate or a black 1536 well microtiter plate (both Greiner Bio-One, Frickenhausen, Germany), 2 microL of a solution of CDK12/CycK in aqueous assay buffer [25 millimol/L HEPES pH 7.5, 20 millimol/L MgCl2, 5 millimol/L β-glycerophosphate, 2 millimol/L EGTA, 1.0 millimol/L dithiothreitol, 0.01% (v/v) Nonidet-P40 (Sigma), 0.01% (w/v) bovine serum albumin] were added and the mixture was incubated for 15 min at 22° C. to allow pre-binding of the test compounds to the enzyme before the start of the kinase reaction. Then the kinase reaction was started by the addition of 3 microL of a solution ATP (3.33 millimol/L=>final conc. in the 5 microL assay volume is 2 millimol/L) and substrate (1.67 micromol/L=>final conc. in the 5 microL assay volume is 1 micromol/L) in assay buffer and the resulting mixture was incubated for a reaction time of 60 min at 22° C. The concentration of CDK12/CycK was adjusted depending of the activity of the enzyme lot and was chosen appropriate to have the assay in the linear range, typical concentrations were about 0.75 nanomol/L. The reaction was stopped by the addition of 3 microL of a solution of TR-FRET detection reagents (125 nanomol/L streptavidine-XL665 [Cisbio Bioassays, Codolet, France] and 0.67 nanomol/L anti-Phospho-c-Myc (Ser 62) (E1J4K)-antibody from Cell Signalling [#13748] and 2 nanomol/L LANCE EU-W1024 labeled anti-rabbit IgG antibody [Perkin-Elmer, product no. 0083]) in an aqueous EDTA-solution (133 millimol/L EDTA, 0.27% (w/v) bovine serum albumin in 66.7 millimol/L HEPES pH 7.5).
The resulting mixture was incubated 1 h at 22° C. to allow the formation of complex between the phosphorylated biotinylated peptide and the detection reagents. Subsequently the amount of phosphorylated substrate was evaluated by measurement of the resonance energy transfer from the Eu-chelate to the streptavidine-XL. Therefore, the fluorescence emissions at 620 nm and 665 nm after excitation at 350 nm was measured in a TR-FRET reader, e.g. a Pherastar FS (BMG Labtechnologies, Offenburg, Germany) or a Viewlux (Perkin-Elmer). The ratio of the emissions at 665 nm and at […] was taken as the measure for the amount of phosphorylated substrate. The data were normalised (enzyme reaction without inhibitor=0% inhibition, all other assay components but no enzyme=100% inhibition).

[3] = target: CDK12 (Homo sapiens (Human), UniProt Q9NYV4); experiment: CDK12 nuclear protein level: immunofluorescence/high content analysis in CAL-120 cells; type: cell-based; settings: 24 h, nuclear CDK12 staining intensity, median, read-out: CDK12 degradation IF, DC50 - [mol/l] (median)
Method: In the context of the present invention, the term “DC50 CDK12” refers to the DC50 values obtained according to the assay described in this section (7) herein below, i.e. the DC50 values for the degradation of CDK12.
CAL-120 human breast cancer cells (DSMZ ACC 459) are seeded in 1536-well microtiter plates (800 cells per well) containing 50 nanoL of compounds in Dose-Response. Control wells received DMSO or Example 4. Plates are then incubated for 24 h at 37° C. in an humidified incubator and fixed with 4% PFA for 10 min. Then immunofluorescence (IF) against CDK12 (CellSignalling CDK12 Antibody #11973, rabbit, 1:100 dilution) is performed using standard IF protocols. Cells are then stained with Hoechst 33342 (Life Technologies, H-1399, 0.1 microg/ml) and imaged on an automated confocal microscopy system (e.g. Perkin Elmer Opera Phenix). Nuclear and cytoplasmic intensity as well as the nuclear/cytoplasmic intensity ratio is determined by automated image analysis using custom generated scripts (MetaXpress). Data is then transferred to Genedata Screener software, normalized to DMSO and control and DC50 values (degrading concentration to achieve 50% reduction of nuclear CDK12 staining intensity relative to controls) are reported.

CDK12/CyclinK, sequence (Q9NYV4 other isoform, or with tags, fused parts or gaps): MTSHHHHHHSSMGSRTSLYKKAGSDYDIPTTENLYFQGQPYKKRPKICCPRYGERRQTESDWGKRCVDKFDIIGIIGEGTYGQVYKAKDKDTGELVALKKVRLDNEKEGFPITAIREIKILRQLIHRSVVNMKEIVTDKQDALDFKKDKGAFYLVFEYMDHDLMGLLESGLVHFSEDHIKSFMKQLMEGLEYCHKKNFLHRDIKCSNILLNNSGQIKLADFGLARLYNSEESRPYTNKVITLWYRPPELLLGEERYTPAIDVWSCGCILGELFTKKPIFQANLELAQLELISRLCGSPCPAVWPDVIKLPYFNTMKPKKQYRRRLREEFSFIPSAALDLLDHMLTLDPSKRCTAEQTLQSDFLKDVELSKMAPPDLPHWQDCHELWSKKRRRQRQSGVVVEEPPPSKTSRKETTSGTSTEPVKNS
CDK12/CyclinK, sequence (O75909 other isoform, or with tags, fused parts or gaps partner): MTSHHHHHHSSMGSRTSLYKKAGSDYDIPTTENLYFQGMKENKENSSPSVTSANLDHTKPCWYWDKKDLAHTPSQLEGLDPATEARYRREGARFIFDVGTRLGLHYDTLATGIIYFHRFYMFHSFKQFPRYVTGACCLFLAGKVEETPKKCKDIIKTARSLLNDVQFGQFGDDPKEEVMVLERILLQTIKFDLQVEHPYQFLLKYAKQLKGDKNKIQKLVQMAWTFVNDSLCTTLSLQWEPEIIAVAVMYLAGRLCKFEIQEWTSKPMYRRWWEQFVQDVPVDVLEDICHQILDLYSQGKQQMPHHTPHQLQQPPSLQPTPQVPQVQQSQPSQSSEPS
CDK12, sequence (Q9NYV4 whole entry): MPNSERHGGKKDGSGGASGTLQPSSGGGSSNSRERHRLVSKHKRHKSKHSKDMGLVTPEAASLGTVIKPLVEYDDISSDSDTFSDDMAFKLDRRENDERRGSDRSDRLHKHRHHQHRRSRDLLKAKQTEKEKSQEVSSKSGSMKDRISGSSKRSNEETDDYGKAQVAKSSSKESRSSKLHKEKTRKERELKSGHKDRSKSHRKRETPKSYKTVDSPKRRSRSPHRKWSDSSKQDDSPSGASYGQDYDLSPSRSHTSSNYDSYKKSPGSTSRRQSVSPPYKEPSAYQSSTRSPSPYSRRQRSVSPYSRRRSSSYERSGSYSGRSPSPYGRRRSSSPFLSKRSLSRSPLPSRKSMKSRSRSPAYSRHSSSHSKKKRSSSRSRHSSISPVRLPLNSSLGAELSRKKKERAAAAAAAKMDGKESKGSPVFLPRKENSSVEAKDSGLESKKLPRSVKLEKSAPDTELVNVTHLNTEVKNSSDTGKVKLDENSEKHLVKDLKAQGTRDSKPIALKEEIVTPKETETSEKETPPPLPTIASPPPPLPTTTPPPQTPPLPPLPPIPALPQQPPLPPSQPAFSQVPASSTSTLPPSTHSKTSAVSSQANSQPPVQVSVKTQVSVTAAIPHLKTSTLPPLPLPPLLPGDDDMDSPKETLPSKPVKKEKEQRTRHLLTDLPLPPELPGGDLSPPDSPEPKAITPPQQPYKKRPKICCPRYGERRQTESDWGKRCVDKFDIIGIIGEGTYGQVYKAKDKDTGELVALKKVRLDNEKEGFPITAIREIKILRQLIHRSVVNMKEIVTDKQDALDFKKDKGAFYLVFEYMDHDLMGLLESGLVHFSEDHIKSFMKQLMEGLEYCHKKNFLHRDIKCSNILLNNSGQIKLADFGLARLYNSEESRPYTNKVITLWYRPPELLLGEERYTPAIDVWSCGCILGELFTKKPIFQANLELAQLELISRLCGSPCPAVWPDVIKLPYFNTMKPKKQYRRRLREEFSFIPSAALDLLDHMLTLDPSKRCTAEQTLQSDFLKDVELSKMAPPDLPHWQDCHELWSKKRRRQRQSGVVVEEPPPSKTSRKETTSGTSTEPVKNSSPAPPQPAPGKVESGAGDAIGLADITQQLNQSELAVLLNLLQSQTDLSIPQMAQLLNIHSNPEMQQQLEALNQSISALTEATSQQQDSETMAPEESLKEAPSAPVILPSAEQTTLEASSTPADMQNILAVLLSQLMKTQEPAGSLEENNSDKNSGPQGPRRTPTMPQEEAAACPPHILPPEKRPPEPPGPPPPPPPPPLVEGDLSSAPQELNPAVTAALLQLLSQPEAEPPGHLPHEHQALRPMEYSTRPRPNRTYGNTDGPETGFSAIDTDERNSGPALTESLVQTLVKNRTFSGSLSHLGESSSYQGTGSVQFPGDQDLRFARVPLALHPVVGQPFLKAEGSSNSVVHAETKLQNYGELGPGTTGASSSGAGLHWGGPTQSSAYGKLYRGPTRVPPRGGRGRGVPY
CDK12, sequence (O75909 whole entry partner): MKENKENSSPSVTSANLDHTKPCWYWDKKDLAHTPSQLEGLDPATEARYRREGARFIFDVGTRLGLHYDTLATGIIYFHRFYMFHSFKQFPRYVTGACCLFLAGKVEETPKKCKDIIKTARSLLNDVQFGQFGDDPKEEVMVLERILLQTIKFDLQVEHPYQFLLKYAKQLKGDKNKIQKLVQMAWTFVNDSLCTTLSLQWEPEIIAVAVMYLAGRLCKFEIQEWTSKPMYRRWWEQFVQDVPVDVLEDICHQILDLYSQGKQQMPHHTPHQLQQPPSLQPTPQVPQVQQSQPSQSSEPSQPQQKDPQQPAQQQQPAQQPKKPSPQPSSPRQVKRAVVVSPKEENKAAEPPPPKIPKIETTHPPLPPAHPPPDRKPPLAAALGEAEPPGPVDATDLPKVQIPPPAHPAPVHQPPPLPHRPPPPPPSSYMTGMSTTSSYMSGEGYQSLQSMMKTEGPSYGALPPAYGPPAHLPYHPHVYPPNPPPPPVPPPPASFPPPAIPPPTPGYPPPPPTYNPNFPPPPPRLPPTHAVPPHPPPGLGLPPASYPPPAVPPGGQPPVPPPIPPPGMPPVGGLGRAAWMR

| Structure (SMILES) | IC50 [1] [nM] | IC50 [2] [nM] | (IC50 CDK12 high ATP) to (Degradation DC50 CDK12) ratio [2] | DC50 [3] [nM] |
| --- | --- | --- | --- | --- |
| FC(F)(F)Oc1ccc(-c2nnc(CNc3nc(N4CCOCC4)nc4c(C(F)(F)F)cnn34)[nH]2)cc1 [Example 5, 2-(morpholin-4-yl)-N-({5-[4-(trifluoromethoxy)phenyl]-4H-1,2,4-triazol-3-yl}methyl)-8-(trifluoromethyl)pyrazolo[1,5-a][1,3,5]triazin-4-amine] | 109 | 262 | 0.26 | 1000 |
| FC(F)(F)c1ccc(-c2nnc(CNc3nc(N4CCOCC4)nn4c(C(F)(F)F)cnc34)[nH]2)cc1 [Example 11, 2-(morpholin-4-yl)-7-(trifluoromethyl)-N-({5-[4-(trifluoromethyl)phenyl]-4H-1,2,4-triazol-3-yl}methyl)imidazo[2,1-f][1,2,4]triazin-4-amine] |  | 32.3 | 0.04 | 920 |
| COc1ccc(-c2cnc(CNc3nc(N4CCOCC4)nc4c(C(F)(F)F)cnn34)[nH]2)cn1 [Example 21, N-{[5-(6-methoxypyridin-3-yl)-1H-imidazol-2-yl]methyl}-2-(morpholin-4-yl)-8-(trifluoromethyl)pyrazolo[1,5-a][1,3,5]triazin-4-amine] | 98.8 |  |  | > 1000 |
| COc1ccc(-c2nnc(CNc3nc(N4CCOCC4)nc4c(C(F)(F)F)cnn34)[nH]2)cn1 [Example 15, N-{[5-(6-methoxypyridin-3-yl)-4H-1,2,4-triazol-3-yl]methyl}-2-(morpholin-4-yl)-8-(trifluoromethyl)pyrazolo[1,5-a][1,3,5]triazin-4-amine] |  | 526 | <0.53 | > 1000 |
| FC(F)(F)Oc1ccc(-c2nnc(CNc3nc(N4CCOCC4)nn4c(C(F)(F)F)cnc34)[nH]2)cn1 [Example 19, 2-(morpholin-4-yl)-N-({5-[6-(trifluoromethoxy)pyridin-3-yl]-4H-1,2,4-triazol-3-yl}methyl)-7-(trifluoromethyl)imidazo[2,1-f][1,2,4]triazin-4-amine] | 34.5 | 4.14 |  |  |
| Cc1ccc(-c2nnc(CNc3nc(N4CCOCC4)nn4c(C(F)(F)F)cnc34)[nH]2)cn1 [Example 23, N-{[5-(6-methylpyridin-3-yl)-4H-1,2,4-triazol-3-yl]methyl}-2-(morpholin-4-yl)-7-(trifluoromethyl)imidazo[2,1-f][1,2,4]triazin-4-amine] | 102 | 160 | <0.16 | > 1000 |
| FC(F)(F)c1ccc(-c2cnc(CNc3nc(N4CCOCC4)nc4c(Br)cnn34)[nH]2)cc1 [Example 3, 8-bromo-2-(morpholin-4-yl)-N-({5-[4-(trifluoromethyl)phenyl]-1H-imidazol-2-yl}methyl)pyrazolo[1,5-a][1,3,5]triazin-4-amine] |  | 267 | <0.09 | > 2880 |
| FC(F)(F)Oc1ccc(-c2cnc(CNc3nc(N4CCOCC4)nc4c(C(F)(F)F)cnn34)[nH]2)cc1 [Example 10, 2-(morpholin-4-yl)-N-({5-[4-(trifluoromethoxy)phenyl]-1H-imidazol-2-yl}methyl)-8-(trifluoromethyl)pyrazolo[1,5-a][1,3,5]triazin-4-amine] | 37.3 | 7.59 | <7.59E−3 | > 1000 |
| COc1ccc(-c2nnc(CNc3nc(N4CCOCC4)nn4c(C(F)(F)F)cnc34)[nH]2)cn1 [Example 18, N-{[5-(6-methoxypyridin-3-yl)-4H-1,2,4-triazol-3-yl]methyl}-2-(morpholin-4-yl)-7-(trifluoromethyl)imidazo[2,1-f][1,2,4]triazin-4-amine] | 71.5 |  |  | > 1000 |
| FC(F)(F)Oc1ccc(-c2nnc(CNc3nc(N4CCOCC4)nn4c(C(F)(F)F)cnc34)[nH]2)cc1 [Example 14, 2-(morpholin-4-yl)-N-({5-[4-(trifluoromethoxy)phenyl]-4H-1,2,4-triazol-3-yl}methyl)-7-(trifluoromethyl)imidazo[2,1-f][1,2,4]triazin-4-amine] |  |  |  | 665 |
| FC(F)(F)c1ccc(-c2nnc(CNc3nc(N4CCOCC4)nc4c(C(F)(F)F)cnn34)[nH]2)cc1 [Example 6, 2-(morpholin-4-yl)-8-(trifluoromethyl)-N-({5-[4-(trifluoromethyl)phenyl]-4H-1,2,4-triazol-3-yl}methyl)pyrazolo[1,5-a][1,3,5]triazin-4-amine] |  | 736 | 0.74 | 1000 |
| FC(F)(F)c1ccc(-c2cnc(CNc3nc(N4CCOCC4)nc4c(C(F)(F)F)cnn34)[nH]2)cn1 [Example 24, 2-(morpholin-4-yl)-8-(trifluoromethyl)-N-({5-[6-(trifluoromethyl)pyridin-3-yl]-1H-imidazol-2-yl}methyl)pyrazolo[1,5-a][1,3,5]triazin-4-amine] | 29.5 |  |  | > 1000 |
| FC(F)(F)c1ccc(-c2cnc(CNc3nc(N4CCOCC4)nn4c(C(F)(F)F)cnc34)[nH]2)cc1 [Example 7, 2-(morpholin-4-yl)-7-(trifluoromethyl)-N-({5-[4-(trifluoromethyl)phenyl]-1H-imidazol-2-yl}methyl)imidazo[2,1-f][1,2,4]triazin-4-amine] |  | 26.3 | 0.04 | 671 |
| Cc1ccc(-c2nnc(CNc3nc(N4CCOCC4)nc4c(C(F)(F)F)cnn34)[nH]2)cn1 [Example 22, N-{[5-(6-methylpyridin-3-yl)-4H-1,2,4-triazol-3-yl]methyl}-2-(morpholin-4-yl)-8-(trifluoromethyl)pyrazolo[1,5-a][1,3,5]triazin-4-amine] |  | 489 | <0.49 | > 1000 |
